Results taken from US20100168112A1, “2-Substituted and 4-substituted aryl nitrone compounds” (RENOVIS, INC., priority 2004, published 2010).
Like-named read-outs stand apart in the source and are kept apart here.

Experiments:
[1] = Pharmacokinetic evaluation following intravenous and oral administration in rats; type: in vivo; settings: male, Sprague-Dawley; for Cmax / Tmax / bioavailability: 5 mg/kg; for Cmax: rat plasma; for Cmax / Tmax: oral gavage, 2 mg/mL at 2.5 mL/kg; for clearance / Vd / Tmax / bioavailability / half-life: plasma, rat; for clearance / Vd / half-life: 1 mg/kg; for clearance / Vd: intravenous administration, 1 mg/mL at 1.0 mL/kg; for clearance: read-out: CI (clearance) (converted); for Vd: read-out: Vd (volume of distribution); for bioavailability: po 2 mg/mL at 2.5 mL/kg vs iv 1 mg/mL at 1.0 mL/kg, dose-normalized, read-out: F (%) oral bioavailability; for half-life: intravenous, read-out: T1/2 elimination half life (converted)
How it was run: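 Male Sprague-Dawley rats, fasted, dosed iv (1 mg/mL formulation, 1.0 mL/kg, jugular or tail vein) or by oral gavage (2 mg/mL suspension, 2.5 mL/kg). Plasma sampled from 2 min to 480 min, some to 24 h, and quantified by LC-MS/MS (MRM). Parameters from noncompartmental analysis.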

[2] = Solubility measurement at pH 7.4; type: physicochemical; settings: aqueous buffer, thermodynamic from solid, phosphate buffer pH 7.4, room temperature
Procedure: Nitrone compounds (>3 mg) of this invention were mixed with a phosphate buffer at pH 7.4 to make a >0.3 mg/mL mixture. The mixture was vortexed for more than 2 hours and equilibrated over 12 hours at room temperature. The equilibrated mixture was used to saturate a 0.45 μm Tuffryn syringe filter. After saturating, the remainder of the mixture was filtered through the saturated filter. The filtrate was diluted by 1, 10, 100, and 1000 fold and analyzed using a LC/MS/MS method with standard curve ranging from 1 to 1000 ng/mL.

[3] = Microsomal stability in rat liver microsomes; type: in vitro ADME; settings: rat liver microsomes 0.5 mg/ml, 1 mM NADPH, ~500 ng/ml compound, 37° C.
Procedure: Frozen Sprague-Dawley rat liver microsomes (RLM) were thawed on ice and gently mixed before use. The final reaction mixture consisted of a nitrone compound of this invention (at ˜500 ng/ml), 1 mM NADPH, and 0.5 mg/ml of RLM protein in 0.1 M PBS (pH7.4), with organic solvent concentration not exceeding 1% (v/v). Per set of incubations, a positive control compound was included. The mixture was first pre-incubated 3 to 5 minutes at 37° C. without NADPH, and the reaction was then initialized by the addition of NADPH and incubated at 37° C. for up to 30 minutes. An aliquot of the reaction mixture was sampled at the initiation of the reaction and at designated time after reaction started. The drawn samples were quenched with acetonitrile, diluted with mobile phase to ensure the detection of test article in the linear range, and analyzed by LC/MS/MS. Half-life or percentage of remaining nitrone compound was calculated using standard methods. A similar method, or a slight variation of it, was used to test the stability of nitrones in human liver microsomes (HLM).

[4] = DPPH free radical-scavenging/antioxidant assay; type: biochemical; settings: 50 μM DPPH in 80% methanol; 24 h time point; read-out: EC50 (concentration at which a compound reduces by 50% the peak absorbance of DPPH at 520 nm)
How it was run: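 Compounds diluted 100-fold from DMSO stocks into 50 μM DPPH in 80% methanol; absorbance at 520 nm followed kinetically to steady state, with the 24 h reading used. EC50 interpolated from OD520 versus concentration; Trolox, BHA, PBN and S-PBN as positive controls, DMSO as vehicle.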

[5] = Microsomal stability in human liver microsomes; type: in vitro ADME; settings: NADPH, 37° C.
How it was run: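 Compound (~500 ng/ml) incubated at 37°C for up to 30 min with 0.5 mg/ml microsomal protein and 1 mM NADPH in 0.1 M PBS pH7.4, after 3–5 min preincubation without NADPH. Sprague-Dawley rat or human microsomes; acetonitrile-quenched timepoints analysed by LC/MS/MS for half-life or percent remaining.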

[6] = Plasma protein binding (equilibrium dialysis), rat plasma; type: in vitro ADME; settings: 1 μg/mL in plasma, dialysis vs phosphate buffer pH 7.4 overnight at 37° C., read-out: Plasma Protein Binding % Bound Rat (converted)
Procedure: (§1) Nitrone compounds of this invention were individually dissolved in DMSO to make a stock solution of 1 mg/mL. The compound was spiked into plasma to achieve a final concentration of 1 μg/mL. Spiked plasma and phosphate buffer (0.1M, pH 7.4), 200 μl each, were added to the opposite sides of the membrane in a 96-well equilibrium dialyzer. The dialyzer plate was then covered and equilibrated overnight at 37° C. on an orbital shaker. Aliquots were taken from the plasma and the buffer compartments and prepared by adding blank plasma to samples from the buffer compartments and drug-free phosphate buffer to samples from the plasma compartments to eliminate the matrix effects. The samples were extracted using protein precipitation procedure by adding CH3CN. The samples were analyzed using a LC/MS/MS method. The percentage of free and bound nitrone compound were calculated according to the following formula:
(§2) %Free=[Free Drug/Total Drug]*100=[(Peak Area)buffer/(Peak Area)serum]*100%Bound=100%Free

[7] = Plasma protein binding (equilibrium dialysis), human plasma; type: in vitro ADME; settings: 1 μg/mL in plasma, dialysis vs phosphate buffer pH 7.4 overnight at 37° C., read-out: Plasma Protein Binding % Bound Human (converted)
Procedure: as §1, §2

[8] = read-out: Solubility @ pH 7.4 (μg/mL)

Structure (SMILES)	Cmax [1] [ng/mL]	clearance [1] [mL/min/kg]	Vd [1] [L/kg]	Tmax [1] [min]	bioavailability [1] [%]	half-life [1] [min]	solubility ([2]; read-out: Solubility @ pH 7.4) [µM]	solubility [2, 8] [µg/mL]	% of Nitrone Remaining at 30 min (Rat) [3] [%]	EC50 [4] [µM]	% of Nitrone Remaining at 30 min (Human) [5] [%]	fraction unbound at 1 μg/mL [6]	fraction unbound at 1 μg/mL [7]
CC(C)(C)/[N+]([O-])=C/c1ccc(C(=O)O)cc1 [Compound 13, N-tert-Butyl-C-(4-carboxy-phenyl)nitrone]	5580	12.8	0.41	19.8	64.7	22.2	9040	2000	100				
CC(C)(C)NC(=O)c1ccc(/C=[N+](\[O-])C(C)(C)C)cc1 [Compound 18, N-(tert-Butyl)-C-[4-(N-tert-butylcarbamoyl)phenyl]nitrone]	2240	21.5	0.62	25.2	75.1	19.8	1360	376	100				
CC(C)(C)/[N+]([O-])=C/c1ccc(C(N)=O)cc1 [Compound 19]	3000	2.33	0.74	19.8	39.5	218	14200	3130	100				
CCN(CC)S(=O)(=O)c1ccccc1/C=[N+](\[O-])C(C)(C)C [Compound 30, N-tert-Butyl-C-(2-diethylsulfamoylphenyl)nitrone]	40	93.8	4.15	4.98	1.7	30.6	2530	791	7.4	> 1000			
CCN(CC)S(=O)(=O)c1ccccc1/C=[N+](\[O-])C1CCCCC1 [Compound 31, N-Cyclohexyl-C-(2-diethylsulfamoylphenyl)nitrone]							2890	978	0	> 1000			
CCN(CC)S(=O)(=O)c1ccccc1/C=[N+](\[O-])Cc1ccccc1 [Compound 32, N-Benzyl-C-(2-diethylsulfamoylphenyl)nitrone]									0	> 1000			
CC(C)(C)/[N+]([O-])=C/c1ccccc1S(=O)(=O)N1CCCCC1 [Compound 33, N-tert-Butyl-C-[2-(piperidine-1-sulfonyl)phenyl]nitrone]	10	36.2	1.66	4.98	0.1	32.4	> 3330	> 1080	0.3	> 1000			
O=S(=O)(c1ccccc1/C=[N+](\[O-])C1CCCCC1)N1CCCCC1 [Compound 34, N-Cyclohexyl-C-[2-(piperidine-1-sulfonyl)phenyl]nitrone]							1420	500	0	> 1000			
O=S(=O)(c1ccccc1/C=[N+](\[O-])Cc1ccccc1)N1CCCCC1 [Compound 35, N-Benzyl-C-[2-(piperidine-1-sulfonyl)phenyl]nitrone]							107	38.4	0	> 1000			
CC(C)S(=O)(=O)c1ccc(/C=[N+](\[O-])C(C)(C)C)c(S(=O)(=O)C(C)C)c1 [Compound 65, N-tert-Butyl-C-(2,4-bis-2-propanesulfonylphenyl)nitrone]	339	31.5	0.98	14.4	13.7	21			78	500 to 1000	94		
CCS(=O)(=O)c1ccc(/C=[N+](\[O-])C(C)(C)C)cc1 [Compound 67, N-tert-Butyl-C-(4-ethanesulfonylphenyl)nitrone]	4760	1.17	0.42	79.8	46.4	266				> 1000		0.78	0.864
CCS(=O)(=O)c1ccccc1/C=[N+](\[O-])C(C)(C)C [Compound 68, N-tert-Butyl-C-(2-ethanesulfonylphenyl)nitrone]	2110	7.83	0.63	59.4	36.4	55.8				500 to 1000		0.783	0.781
CC(C)S(=O)(=O)c1ccccc1/C=[N+](\[O-])C(C)(C)C [Compound 69, N-tert-Butyl-C-[2-(2-propanesulfonyl)phenyl]nitrone]	1840	14	0.76	11.4	54.9	38.4				> 1000		0.755	0.532
CC(C)S(=O)(=O)c1ccc(/C=[N+](\[O-])C(C)(C)C)cc1 [Compound 70, N-tert-Butyl-C-[4-(2-propanesulfonyl)phenyl]nitrone]	1270	20	1.07	29.4	52.2	37.2				> 1000		0.718	0.796
CC(C)(C)/[N+]([O-])=C/c1ccc(S(=O)(=O)C2CCCC2)cc1 [Compound 71, N-tert-Butyl-C-[4-(cyclopentanesulfonyl)phenyl]nitrone]	108	31	1.66	16.8	5.87	45.6				> 1000		0.484	0.544
CC(C)(C)/[N+]([O-])=C/c1ccc(C(F)(F)F)cc1S(C)(=O)=O [Compound 72, N-tert-Butyl-C-[2-methanesulfonyl-4-trifluoromethylphenyl]nitrone]	1520	11	2.69	19.2	59.8	169				> 1000		0.319	0.367
